One substance from patent publication US20230226152A1, “INTERLEUKIN-2 POLYPEPTIDE CONJUGATES AND METHODS OF USE THEREOF” (Ambrx, Inc., priority 2020, published 2023) can be followed below.

In the test the test system is CTLL-2 cells. The test is described as follows: CTLL-2 cell expansion / proliferation (binding) assay. The test is classed as cell-based. The procedure: T cell expansion test of IL-2 variants in CTLL-2 cells. CTLL-2 cell expansion assay was performed using transiently expressed F42 variant supernatant from transfected engineered CHO cells. […] Cell proliferation was performed using Cell Titer Glo (Promega, WI). Luminescent signal was read on TECAN genios pro. […] A general procedure for studying the IL-2 variants of the present invention is shown in the following:
Utilizing a CTLL-2 cell expansion assay as disclosed in the Examples, 20 different IL-2 variants including 16 originally selected sites (wild type included) and 4 additional sites (K32, K48, K49, K76) known in the art were screened (Charych, D., et al., PLoS One, 12(7): p. e0179431, 2017). […] Identified variants were further analyzed for their binding capabilities after PEGylation.

As to “F42: IL-2 with unnatural amino acid (pAF) at F42, SEQ ID NO: 9”, the EC50 result (transiently expressed variant supernatant from engineered CHO cells, Cell Titer Glo) is listed as “around 0.24 ng/mL”. In addition, the “function retained compared to wild type control” value (wild type IL-2 = 100% proliferation) amounted to 95%.
